Reference: paper PMC11336422, “Oligoarginine peptide structure and its effect on cell penetration in ocular drug delivery” (Heliyon, 2024)
Read-outs that look alike come from different tables or passages of the source. Peptide text beside a SMILES is read from it.

Legend:
[1] = system: Staphylococcus aureus (S. aureus) ATCC6538; assay type: cell-based
Protocol: (§1) A broth microdilution assay was performed to determine the minimum inhibitory concentration (MIC) for the oligoarginine peptides. Escherichia coli (E. coli) ATCC25922 and Staphylococcus aureus (S. aureus) ATCC6538 were used as model organisms for Gram-negative and Gram-positive bacteria, respectively. Both strains were cultured in LB broth for ∼18 h overnight at 37 °C and shaking set to 180 RPM. The culture was diluted to obtain a 0.01 optical density (OD) bacterial suspension in LB. Using a 96-well plate, oligoarginine concentrations ranging from 1 mM to 0.001 mM were obtained, and each peptide concentration was tested against both bacterial strains. The bacteria were incubated overnight at 37 °C for 18 h, and the lowest concentration of the treatment with no visible bacterial growth was recorded as the MIC of the respective oligoarginine treatment.

[2] = system: Escherichia coli (E. coli) ATCC25922; assay type: cell-based
Protocol: as §1

[3] = LB broth, 1 mM to 0.001 mM, 18 h at 37 °C, no visible growth, average ± SEM, n = 9

SMILES	S. aureus MIC ([1]; ATCC6538, 18 h)	E. coli MIC ([2]; ATCC25922, 18 h)	S. aureus MIC [1, 3]	E. coli MIC [2, 3]
N=C(N)NCCC[C@H](NC(=O)[C@H](CCCNC(=N)N)NC(=O)[C@H](CCCNC(=N)N)NC(=O)[C@H](CCCNC(=N)N)NC(=O)[C@H](CCCNC(=N)N)NC(=O)[C@@H](N)CCCNC(=N)N)C(=O)O [R6]	> 1 mM	> 1 mM		
N=C(N)NCCC[C@H](NC(=O)[C@H](CCCNC(=N)N)NC(=O)[C@H](CCCNC(=N)N)NC(=O)[C@H](CCCNC(=N)N)NC(=O)[C@H](CCCNC(=N)N)NC(=O)[C@H](CCCNC(=N)N)NC(=O)[C@H](CCCNC(=N)N)NC(=O)[C@H](CCCNC(=N)N)NC(=O)[C@H](CCCNC(=N)N)NC(=O)[C@H](CCCNC(=N)N)NC(=O)[C@H](CCCNC(=N)N)NC(=O)[C@@H](N)CCCNC(=N)N)C(=O)O [R12]			0.61 ± 0.22 mM	0.94 ± 0.16 mM
N=C(N)NCCC[C@H](NC(=O)[C@H](CCCNC(=N)N)NC(=O)[C@@H](N)CCCNC(=N)N)C(=O)O [R3] (H-Arg-Arg-Arg-OH)	> 1 mM	> 1 mM		
N=C(N)NCCC[C@H](NC(=O)[C@H](CCCNC(=N)N)NC(=O)[C@H](CCCNC(=N)N)NC(=O)[C@H](CCCNC(=N)N)NC(=O)[C@H](CCCNC(=N)N)NC(=O)[C@H](CCCNC(=N)N)NC(=O)[C@H](CCCNC(=N)N)NC(=O)[C@H](CCCNC(=N)N)NC(=O)[C@@H](N)CCCNC(=N)N)C(=O)O [R9]	1 mM	> 1 mM		
